Measurements as given in ChEMBL document CHEMBL1131821, “SAR in the alkoxy lactone series: the discovery of DFP, a potent and orally active COX-2 inhibitor” (Bioorg Med Chem Lett, 1999).
Each block holds one compound with its values, some of them ahead of it.

Key:
[1] = biological target: T1, Prostaglandin G/H synthase 1 (Homo sapiens, UniProt P23219); type: tissue-based, Blood
Description: Inhibitory activity against Prostaglandin G/H synthase 1 in human whole blood

[2] = biological target: T1, Prostaglandin G/H synthase 1; assay: In vitro inhibitory activity against Prostaglandin G/H synthase 1 in human whole blood assay
[3] = biological target: T1, Prostaglandin G/H synthase 1; assay: Inhibitory activity against Human Cyclooxygenase-1 ( COX-1 ) in U937 Microsome COX-1 assay
Rattus norvegicus [4] = assay: In vivo effective concentration of compound in rat hyperalgesia; type: functional
Rattus norvegicus [5] = assay: In vivo effective concentration of compound in rat adjuvant arthritis; type: functional
Rattus norvegicus [6] = assay: In vivo effective concentration of compound in rat paw edema; type: functional
Rattus norvegicus [7] = assay: In vivo effective concentration of compound in rat pyresis; type: functional
[8] = biological target: T1, Prostaglandin G/H synthase 1; assay: Inhibitory activity against Human Prostaglandin G/H synthase 1 in U937 Microsome COX-1 assay
[9] = Maximal concentration (Cmax) in dog plasma at a dose of […] mg/kg; type: ADME, organism-based, Canis lupus familiaris; details: 5 mg/kg
[10] = Maximal concentration (Cmax) in the rat plasma at a dose of 10 mg/kg; type: ADME, organism-based; parameters: dose 10 mg/kg
[11] = Half life the of compound was determined by ''Cr'' assay in rat at a dose of 10 mg/kg; type: ADME, organism-based; parameters: dose 10 mg/kg; details: in vivo
[12] = biological target: T1, Prostaglandin G/H synthase 1; assay: Inhibitory activity against Human Prostaglandin G/H synthase 1 in U937 Microsome COX-1 assay at a concentration of 30 uM
[13] = Half life the of compound was determined by ''Cr'' assay in squirrel monkey at a dose of 5 mg/kg; type: ADME, organism-based; parameters: dose 5 mg/kg; details: in vivo
[14] = Half life by ''Cr'' assay in rhesus monkey at a dose of 5 mg/kg; type: ADME, organism-based; parameters: dose 5 mg/kg; details: cercopithecidae, in vivo
[15] = Half life by ''Cr'' assay in dog at a dose of 5 mg/kg; type: ADME, organism-based, Canis lupus familiaris; parameters: dose 5 mg/kg; details: in vivo
[16] = Maximal concentration (Cmax) in rhesus monkey plasma at a dose of 5 mg/kg; type: ADME, organism-based; parameters: dose 5 mg/kg; details: cercopithecidae
[17] = Maximal concentration (Cmax) in squirrel monkey plasma at a dose of 5 mg/kg; type: ADME, organism-based; parameters: dose 5 mg/kg

T1 sequence (P23219 whole entry): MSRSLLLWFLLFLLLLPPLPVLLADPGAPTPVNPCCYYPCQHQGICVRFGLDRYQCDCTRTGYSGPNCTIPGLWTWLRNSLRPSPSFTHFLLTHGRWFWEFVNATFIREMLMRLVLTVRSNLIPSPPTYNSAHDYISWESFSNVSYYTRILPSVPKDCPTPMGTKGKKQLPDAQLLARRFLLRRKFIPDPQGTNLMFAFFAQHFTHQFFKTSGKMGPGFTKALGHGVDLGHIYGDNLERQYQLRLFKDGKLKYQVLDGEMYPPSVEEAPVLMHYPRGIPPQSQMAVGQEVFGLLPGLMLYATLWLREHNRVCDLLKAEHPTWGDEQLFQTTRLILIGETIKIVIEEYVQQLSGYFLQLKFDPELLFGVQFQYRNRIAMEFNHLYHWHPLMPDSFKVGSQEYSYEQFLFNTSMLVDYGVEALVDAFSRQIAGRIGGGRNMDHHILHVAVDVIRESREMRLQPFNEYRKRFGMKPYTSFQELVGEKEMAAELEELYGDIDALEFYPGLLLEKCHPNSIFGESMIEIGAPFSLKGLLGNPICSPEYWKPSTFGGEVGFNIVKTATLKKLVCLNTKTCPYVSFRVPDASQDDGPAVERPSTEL

SMILES: CC1(C)OC(=O)C(OC2CCCCC2)=C1c1ccc(S(C)(=O)=O)cc1
- IC50 [2]: > 58 µM

SMILES: CCC(C)OC1=C(c2ccc(S(C)(=O)=O)cc2)C(C)(C)OC1=O (configuration not stated)
- IC50 [1]: 10 µM

SMILES: CC(OC1=C(c2ccc(S(C)(=O)=O)cc2)C(C)(C)OC1=O)C1CC1 (configuration not stated)
- IC50 [1]: 36 µM
- IC50 [3]: 6.5 µM

SMILES: COc1ccc2c(c1)c(CC(=O)O)c(C)n2C(=O)c1ccc(Cl)cc1 [INDOMETHACIN]
- ED50 (Rattus norvegicus [4]): 1.5 mg/kg
- ED50 (Rattus norvegicus [5]): 0.2 mg/kg
- ED50 (Rattus norvegicus [6]): 2 mg/kg
- ED50 (Rattus norvegicus [7]): 1.1 mg/kg

SMILES: CC1(C)OC(=O)C(OCC2CC2)=C1c1ccc(S(C)(=O)=O)cc1 [FIROCOXIB]
- IC50 [1]: > 100 µM
- IC50 [8]: 25 µM

SMILES: CC(C)OC1=C(c2ccc(S(C)(=O)=O)cc2)C(C)(C)OC1=O
- Cmax [9]: 12 µM
- IC50 [1]: > 100 µM
- Cmax [10]: 15 µM
- half-life [11]: 7.1 h
- ED50 (Rattus norvegicus [4]): 0.8 mg/kg
- ED50 (Rattus norvegicus [5]): 0.15 mg/kg
- inhibition [12]: 32%
- half-life [13]: 1.4 h
- half-life [14]: 2 h
- ED50 (Rattus norvegicus [6]): 0.8 mg/kg
- half-life [15]: 4.8 h
- Cmax [16]: 3 µM
- Cmax [17]: 5.5 µM
- ED50 (Rattus norvegicus [7]): 0.3 mg/kg

Other lines, results leading:

- IC50 [1]: 30 µM
SMILES: CC1(C)OC(=O)C(OC2CCC2)=C1c1ccc(S(C)(=O)=O)cc1

- IC50 [1]: > 100 µM
SMILES: CC1(C)OC(=O)C(OC2CCCC2)=C1c1ccc(S(C)(=O)=O)cc1

- IC50 [1]: 39 µM
SMILES: CCC(CC)OC1=C(c2ccc(S(C)(=O)=O)cc2)C(C)(C)OC1=O
